# Measurements taken from paper PMC12362783 (Advanced Science, 2025).
# Tests used:
# ATR = molecular target: T1, ATR (Homo sapiens, UniProt Q13535); assay: ATR kinase inhibition, Mobility Shift Assay; type: biochemical; conditions: n = 3, mean ± SD
# T1 construct: purchased Eurofins 14-953
# Method: The in vitro ATR kinase inhibitory activities were determined by ChemPartner Co., Ltd. (Shanghai, China) using the Mobility Shift Assay. The tested compound was dissolved with DMSO and diluted to 1000/3 × of the final desired highest inhibitor concentration in the reaction. […] The assay wells were incubated at 28 °C for 4 h.
# MDA‐MB‐231 cells [1] = assay: Cell apoptosis assay, Annexin V‐FITC/PI; type: cell-based; conditions: MDA‐MB‐231, 72 h
# Method: (§1) The cell apoptosis analysis was performed with cells seeded in 6‐well plates in growth media. The cells were allowed to attach overnight (8 h). The cultures were treated with different tested drugs for 72 h and evaluated using an Annexin V Flow Kit (BioLegend#B367750) according to the manufacturer's instructions. The data were analyzed by FlowJo software (Tree Star, Inc., Ashland, OR).
# MDA‐MB‐468 cells [2] = assay: Cell apoptosis assay, Annexin V‐FITC/PI; type: cell-based; conditions: MDA‐MB‐468, 72 h
# Method: as §1
# PARP5B = PARP5B (Homo sapiens, UniProt Q9H2K2); assay: PARP family selectivity; type: biochemical
# Method: (§2) The PARP activity assay was performed by ChemPartner (Shanghai, China). Each well was precoated with histone (final conc.: 100 ng mL^−1) diluted in PBS buffer (contains 10 mmol L^−1 NaH2PO4 and 150 mmol L^−1 NaCl, pH 7.4) by incubation at 4 °C overnight. […] The reaction was initiated by the addition of 10 µL of PARP (final conc.: 0.007 nM/well) at room temperature for 60 min. Add 20 µL of anti‐Poly/Mono‐ADP Ribose Rabbit mAb. Incubate for 1.5 h at room temperature and wash the plate three times using PBST buffer. Add 20 µL of diluted (1:2000) anti‐rabbit IgG, HRP‐linked Antibody. Incubate for 1 h at room temperature and wash the plate three times using PBST buffer. Add 25 µL Femto‐ECL Substrate A and Femto‐ECL Substrate B (1:1) mix. Immediately read chemiluminescence on Envision (Revvity, USA).
# PARP5A = PARP5A (Homo sapiens, UniProt O95271); assay: PARP family selectivity; type: biochemical
# Method: as §2
# MDA‐MB‐231 cells [3] = assay: Transwell invasion assay (Matrigel); type: cell-based; conditions: 24 h, vs AZD6738 and Olaparib alone or their combination
# Method: (§3) For the wound‐healing assay, MDA‐MB‐231 cells were seeded into 6‐well plates and grown to 80% confluence. A scratch was made in the cell monolayer using a 20 µL pipette tip, and the cells were washed with PBS to remove floating cells and debris. The cells were then incubated in serum‐free medium. Cells are divided into control and drug treatment Cells in the scratched area were imaged at 0 and 48 h using microscopy, and the distance traveled by cells at the leading edge of the wound at each time point was measured. To assess cell migration, a transwell assay was performed. […] Following 24 h of incubation, the filters were fixed in 4% paraformaldehyde, stained with 0.1% crystal violet, and then imaged and counted under a microscope to determine the number of invading cells. To assess cell invasion, the transwell plate was coated with a layer of Matrigel, and the rest procedure is similar to what has been described above.
# MDA‐MB‐468 cells [4] = assay: Transwell invasion assay (Matrigel); type: cell-based; conditions: 24 h, vs AZD6738 and Olaparib alone or their combination
# Method: as §3
# [5] = system: MDA‐MB‐468 xenograft tumors; assay: Immunohistochemistry staining of xenograft tumors; type: in vivo, mice
# Method: The isolated tumor tissue was fixed in 4% paraformaldehyde for 24 h, dehydrated, embedded, and sliced. After deparaffinization, Ki67 (GB121141‐50, Servicebio), γH2AX (GB111841‐50, Servicebio), CD8 (GB15068‐50, Servicebio), or Cleaved‐caspase‐3 antibody (CST#9661) were incubated at 4 °C overnight, rinsed three times with PBS, and incubated with the secondary antibody. A DAB substrate solution was applied to the slide sections to reveal the antibody staining color. The tissue slide was dehydrated four times with alcohol. The tissue slides were then cleared three times in xylene and mounted with a mounting solution. The mounted slides could be stored at room temperature indefinitely. The immunohistochemical images were obtained under the microscope (Nikon DS‐Ri1).
# MDA‐MB‐453 = assay: Cell growth inhibition, CellTiter‐Glo (CTG); type: cell-based; conditions: Homo sapiens, MDA-MB-453; n = 3; read-out: IC50 MAD‐MB‐453
# Method: (§4) Growth viability was determined by the CellTiter‐Glo luminescent viability assay (Promega) 5 days after drug treatment. Cell viability was measured immediately after dosing (Day 0) and after 5 days of incubation using CellTiter‐Glo (CTG, Promega, G7573). Relative viability was calculated by normalizing the raw luminescence counts of the treated groups to those of the DMSO control groups. IC₅₀ values were calculated using sigmoidal dose‐response curve fitting with GraphPad Prism 9.0 software.
# MCF‐7 = assay: Cell growth inhibition, CellTiter‐Glo (CTG); type: cell-based; conditions: Homo sapiens, MCF7; n = 3
# Method: as §4
# [6] = Oral bioavailability (statement, no method); type: in vivo; conditions: preclinical models; necessitates I.P. delivery
# [7] = Preliminary safety evaluation in xenografted mice (body weight, animal loss, H&E staining of organs); type: in vivo
# Method: MDA‐MB‐468 cells (1 × 10^7) were implanted in the right flanks subcutaneously in female nude mice. When the implanted tumor grew to a volume of 110 mm^3, the animals were randomly divided into four groups, each group containing four animals. […] Tumor size and body weights were measured twice a week. On day 28, the mice were euthanized, tumors were harvested and weighed, and vital organs (heart, liver, spleen, lung, and kidney) were collected. Processed samples were saved for further safety evaluation.
# The tumor sample and vital organs were immersed in 4% paraformaldehyde for 4 h and transferred to 70% ethanol. Individual lobes of the sample were placed in processing cassettes, dehydrated through a serial alcohol gradient, and embedded in paraffin wax blocks. Thick tissue sections (5 µm) were dewaxed in xylene, rehydrated through decreasing concentrations of ethanol, washed in PBS, and stained with H&E. After staining, the sections were dehydrated through increasing concentrations of ethanol and xylene. Images were acquired on a fluorescent inverted microscope (Nikon DS‐Ri1).
# PARP5B, sequence (Q9H2K2 whole entry, species assumed): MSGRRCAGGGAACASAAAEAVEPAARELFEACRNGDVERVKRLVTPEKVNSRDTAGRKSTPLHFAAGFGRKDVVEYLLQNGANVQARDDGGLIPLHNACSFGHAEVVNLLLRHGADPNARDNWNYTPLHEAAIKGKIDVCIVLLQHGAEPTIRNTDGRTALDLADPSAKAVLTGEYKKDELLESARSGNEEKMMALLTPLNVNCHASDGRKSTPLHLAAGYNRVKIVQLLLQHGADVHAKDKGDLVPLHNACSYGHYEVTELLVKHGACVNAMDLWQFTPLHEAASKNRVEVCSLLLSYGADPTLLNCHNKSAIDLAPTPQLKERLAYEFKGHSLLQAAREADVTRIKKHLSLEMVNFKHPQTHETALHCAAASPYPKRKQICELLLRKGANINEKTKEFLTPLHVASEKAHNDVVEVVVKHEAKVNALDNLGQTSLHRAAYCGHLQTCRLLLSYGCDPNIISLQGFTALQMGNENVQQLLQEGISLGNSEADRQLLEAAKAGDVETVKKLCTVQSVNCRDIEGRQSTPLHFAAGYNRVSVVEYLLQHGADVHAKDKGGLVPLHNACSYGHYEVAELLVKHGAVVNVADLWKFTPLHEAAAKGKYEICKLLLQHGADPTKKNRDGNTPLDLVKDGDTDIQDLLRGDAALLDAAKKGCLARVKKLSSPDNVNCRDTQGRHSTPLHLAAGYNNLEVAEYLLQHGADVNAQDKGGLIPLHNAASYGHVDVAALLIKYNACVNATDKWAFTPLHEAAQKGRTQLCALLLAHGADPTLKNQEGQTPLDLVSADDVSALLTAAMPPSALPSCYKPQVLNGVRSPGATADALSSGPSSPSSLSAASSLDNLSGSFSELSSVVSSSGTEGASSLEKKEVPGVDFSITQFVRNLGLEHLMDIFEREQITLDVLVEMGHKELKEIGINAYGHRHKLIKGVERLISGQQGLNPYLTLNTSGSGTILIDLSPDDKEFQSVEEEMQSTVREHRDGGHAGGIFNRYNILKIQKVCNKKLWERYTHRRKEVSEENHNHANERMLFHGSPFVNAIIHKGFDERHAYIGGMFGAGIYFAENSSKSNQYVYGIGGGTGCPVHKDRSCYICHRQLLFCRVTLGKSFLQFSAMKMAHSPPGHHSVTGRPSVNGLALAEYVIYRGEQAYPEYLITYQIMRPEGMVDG
# PARP5A, sequence (O95271 whole entry, species assumed): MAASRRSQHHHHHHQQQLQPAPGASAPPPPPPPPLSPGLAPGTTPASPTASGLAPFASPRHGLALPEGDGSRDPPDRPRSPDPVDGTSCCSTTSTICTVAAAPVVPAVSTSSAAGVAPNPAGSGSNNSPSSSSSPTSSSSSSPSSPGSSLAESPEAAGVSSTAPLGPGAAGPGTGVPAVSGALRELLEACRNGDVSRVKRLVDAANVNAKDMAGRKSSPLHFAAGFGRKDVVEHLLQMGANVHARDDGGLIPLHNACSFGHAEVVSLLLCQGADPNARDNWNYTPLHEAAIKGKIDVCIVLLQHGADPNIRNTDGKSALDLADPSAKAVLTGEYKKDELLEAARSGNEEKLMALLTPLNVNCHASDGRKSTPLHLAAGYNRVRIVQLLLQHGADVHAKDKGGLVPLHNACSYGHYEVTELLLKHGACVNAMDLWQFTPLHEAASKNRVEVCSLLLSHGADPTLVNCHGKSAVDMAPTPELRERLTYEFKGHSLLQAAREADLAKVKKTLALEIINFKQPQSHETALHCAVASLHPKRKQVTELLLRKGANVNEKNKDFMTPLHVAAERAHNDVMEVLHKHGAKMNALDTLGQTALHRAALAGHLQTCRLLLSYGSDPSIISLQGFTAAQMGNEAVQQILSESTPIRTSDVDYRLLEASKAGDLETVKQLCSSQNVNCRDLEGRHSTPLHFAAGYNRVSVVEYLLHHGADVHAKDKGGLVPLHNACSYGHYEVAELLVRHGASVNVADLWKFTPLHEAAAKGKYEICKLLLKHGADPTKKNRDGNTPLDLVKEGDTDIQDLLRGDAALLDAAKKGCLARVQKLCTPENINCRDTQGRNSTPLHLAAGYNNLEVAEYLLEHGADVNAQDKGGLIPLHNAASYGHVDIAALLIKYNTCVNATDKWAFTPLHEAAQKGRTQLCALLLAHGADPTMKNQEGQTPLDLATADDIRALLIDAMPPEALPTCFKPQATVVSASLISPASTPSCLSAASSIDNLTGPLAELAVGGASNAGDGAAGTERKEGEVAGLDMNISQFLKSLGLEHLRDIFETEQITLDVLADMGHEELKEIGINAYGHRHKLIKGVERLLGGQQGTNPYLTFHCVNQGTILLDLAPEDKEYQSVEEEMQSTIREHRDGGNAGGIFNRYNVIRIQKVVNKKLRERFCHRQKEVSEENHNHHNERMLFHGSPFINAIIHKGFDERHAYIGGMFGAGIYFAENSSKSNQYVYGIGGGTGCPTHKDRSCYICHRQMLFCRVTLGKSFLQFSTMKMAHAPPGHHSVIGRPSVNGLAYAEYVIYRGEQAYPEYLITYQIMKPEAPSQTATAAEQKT
smiles,measurement,setting,value
"C[C@@H]1COCCN1c1cc(CNC(=O)c2ccc(C(=O)N3CCN(C(=O)c4cc(Cc5n[nH]c(=O)c6ccccc56)ccc4F)CC3)cc2)nc(-c2ccnc3[nH]ccc23)n1 [Compound B8, (R)‐4‐(4‐(2‐fluoro‐5‐((4‐oxo‐3,4‐dihydrophthalazin‐1‐yl)methyl)benzoyl)piperazine‐1‐carbonyl)‐N‐((6‐(3‐methylmorpholino)‐2‐(1H‐pyrrolo[2,3‐b]pyridin‐4‐yl)pyrimidin‐4‐yl)methyl) benzamide]",IC50,ATR,0.0173 ± 0.0025 µM
same,ability to induce apoptosis vs combination of AZD6738 and Olaparib,MDA‐MB‐231 cells [1],markedly stronger capacity to induce apoptosis
same,ability to induce apoptosis vs combination of AZD6738 and Olaparib,MDA‐MB‐468 cells [2],markedly stronger capacity to induce apoptosis
same,IC50,PARP5B,0.24 µM
same,"PARP5B (selectivity over PARP1, fold)",PARP5B; fold of PARP1 selectivity over PARP5B,631.6 fold
same,IC50,PARP5A,0.116 µM
same,"PARP5A (selectivity over PARP1, fold)",PARP5A; fold of PARP1 selectivity over PARP5A,305 fold
same,invasive capacity,MDA‐MB‐231 cells [3],superior inhibitory effects on the invasive capacity
same,invasive capacity,MDA‐MB‐468 cells [4],superior inhibitory effects on the invasive capacity
same,CD8 expression in tumor tissues (IHC),[5],increased the levels of CD8 expression
same,"Ki67, γH2AX and cleaved‐caspase 3 expression in tumors (IHC)",[5],decreased Ki67 expression and increased γH2AX and cleaved‐caspase 3 expression
same,IC50,MDA‐MB‐453,1.08 ± 0.03 µM
same,IC50,MCF‐7,0.97 ± 0.09 µM
same,oral bioavailability,[6],poor oral bioavailability
same,effect on body weight,"[7]; B8 25 and 50 mg/kg I.P., 28 days, nude mice",no significant effect on body weight
same,"H&E staining of heart, liver, spleen, lungs, and kidneys",[7]; after 28 days of continuous administration,did not cause significant changes in organ structure or cellular morphology
